Tests used:
[1] = system: HT29; assay: cancer cell growth inhibition (SRB); assay type: cell-based, human; settings: Colon Cancer
[2] = system: OVCAR-5; assay: cancer cell growth inhibition (SRB); assay type: cell-based, human; settings: Ovarian Cancer
[3] = system: OVCAR-3; assay: cancer cell growth inhibition (SRB); assay type: cell-based, human; settings: Ovarian Cancer
[4] = system: NCI-H322M; assay: cancer cell growth inhibition (SRB); assay type: cell-based, human; settings: Non-Small Cell Lung Cancer
[5] = system: EKVX; assay: cancer cell growth inhibition (SRB); assay type: cell-based, human; settings: Non-Small Cell Lung Cancer
[6] = system: SN12C; assay: cancer cell growth inhibition (SRB); assay type: cell-based, human; settings: Renal Cancer
[7] = system: SW-620; assay: cancer cell growth inhibition (SRB); assay type: cell-based, human; settings: Colon Cancer
[8] = system: UO-31; assay: cancer cell growth inhibition (SRB); assay type: cell-based, human; settings: Renal Cancer
[9] = system: NCI-H23; assay: cancer cell growth inhibition (SRB); assay type: cell-based, human; settings: Non-Small Cell Lung Cancer
[10] = system: SK-OV-3; assay: cancer cell growth inhibition (SRB); assay type: cell-based, human; settings: Ovarian Cancer
[11] = system: SNB-19; assay: cancer cell growth inhibition (SRB); assay type: cell-based, human; settings: CNS Cancer
[12] = system: NCI-H226; assay: cancer cell growth inhibition (SRB); assay type: cell-based, human; settings: Non-Small Cell Lung Cancer
[13] = system: HOP-92; assay: cancer cell growth inhibition (SRB); assay type: cell-based, human; settings: Non-Small Cell Lung Cancer
[14] = system: Ramos cells; assay: cytotoxicity in Ramos cells; assay type: cell-based; settings: Homo sapiens
Experimental: The compounds listed in Table 5 were tested for cytotoxicity in Ramos cells. The assay was conducted as described in K. M. Johnson et al. Chemistry & Biology 2005, 12, 485-496.

[15] = system: DU-145; assay: cancer cell growth inhibition (SRB); assay type: cell-based, human; settings: Prostate Cancer
[16] = system: OVCAR-8; assay: cancer cell growth inhibition (SRB); assay type: cell-based, human; settings: Ovarian Cancer
[17] = system: SF-539; assay: cancer cell growth inhibition (SRB); assay type: cell-based, human; settings: CNS Cancer
[18] = system: ACHN; assay: cancer cell growth inhibition (SRB); assay type: cell-based, human; settings: Renal Cancer
[19] = system: SF-295; assay: cancer cell growth inhibition (SRB); assay type: cell-based, human; settings: CNS Cancer
[20] = system: TK-10; assay: cancer cell growth inhibition (SRB); assay type: cell-based, human; settings: Renal Cancer
[21] = system: U251; assay: cancer cell growth inhibition (SRB); assay type: cell-based, human; settings: CNS Cancer
[22] = system: SK-MEL-5; assay: cancer cell growth inhibition (SRB); assay type: cell-based, human; settings: Melanoma
[23] = system: RXF 393; assay: cancer cell growth inhibition (SRB); assay type: cell-based, human; settings: Renal Cancer
[24] = system: K-562; assay: cancer cell growth inhibition (SRB); assay type: cell-based, human; settings: Leukemia
[25] = system: SK-MEL-2; assay: cancer cell growth inhibition (SRB); assay type: cell-based, human; settings: Melanoma
[26] = system: MDA-MB-468; assay: cancer cell growth inhibition (SRB); assay type: cell-based, human; settings: Breast Cancer
Excerpt: The compounds described herein can be tested for activity against various forms of cancer by testing for inhibition of cancer cell growth using in vitro assays. For example, compounds V-23 and V-38 (See Table 5 in Example 26) where tested for efficacy in inhibiting the growth of human cancer cells using the general procedure described below. The test evaluated compound activity for inhibiting cancer cell growth in over 50 cancer cell lines, which included non-small cell lung cancer, colon cancer, breast cancer, ovarian cancer, leukemia, renal cancer, melanoma, prostate cancer, and cancer of the central nervous system tissue. […]
Following addition of the test compound, the plates are incubated for an additional 48 h at 37° C., 5% CO2, 95% air, and 100% relative humidity. […] Bound stain is then solubilized with 10 mM trizma base, and the absorbance is read on an automated plate reader at a wavelength of 515 nm. […] Using seven absorbance measurements [time zero, (Tz), control growth, (C), and test growth in the presence of drug at the five concentration levels (Ti)], the percentage growth is calculated at each of the drug concentrations levels.
The percentage of growth inhibition caused by the test compounds on the cancer cell lines can be calculated using the following formulae: [(Ti−Tz)/(C−Tz)]×100 for concentrations for which Ti≧Tz [(Ti−Tz)/Tz]×100 for concentrations for which Ti<Tz

[27] = system: NCI-H460; assay: cancer cell growth inhibition (SRB); assay type: cell-based, human; settings: Non-Small Cell Lung Cancer
[28] = system: BT-549; assay: cancer cell growth inhibition (SRB); assay type: cell-based, human; settings: Breast Cancer
[29] = system: SK-MEL-28; assay: cancer cell growth inhibition (SRB); assay type: cell-based, human; settings: Melanoma
[30] = system: MALME-3M; assay: cancer cell growth inhibition (SRB); assay type: cell-based, human; settings: Melanoma

CN1C(=O)C(Cc2ccc3ccccc3c2)N=C(c2cn[nH]c2)c2cc(Cl)ccc21 (stereo not drawn) [Compound V-38]
growth inhibition of the cancer cells [1]: + (less than 40% growth inhibition of the cancer cells) | growth inhibition of the cancer cells [2]: + (less than 40% growth inhibition of the cancer cells) | growth inhibition of the cancer cells [3]: +++ (at least 75% growth inhibition of the cancer cells) | growth inhibition of the cancer cells [4]: + (less than 40% growth inhibition of the cancer cells) | growth inhibition of the cancer cells [5]: ++ (40%-75% growth inhibition of the cancer cells) | growth inhibition of the cancer cells [6]: ++ (40%-75% growth inhibition of the cancer cells) | growth inhibition of the cancer cells [7]: +++ (at least 75% growth inhibition of the cancer cells) | growth inhibition of the cancer cells [8]: +++ (at least 75% growth inhibition of the cancer cells) | growth inhibition of the cancer cells [9]: +++ (at least 75% growth inhibition of the cancer cells) | growth inhibition of the cancer cells [10]: + (less than 40% growth inhibition of the cancer cells) | growth inhibition of the cancer cells [11]: ++ (40%-75% growth inhibition of the cancer cells) | growth inhibition of the cancer cells [12]: ++ (40%-75% growth inhibition of the cancer cells) | growth inhibition of the cancer cells [13]: ++ (40%-75% growth inhibition of the cancer cells) | EC50 [14]: ≤ 5 µM | growth inhibition of the cancer cells [15]: +++ (at least 75% growth inhibition of the cancer cells) | growth inhibition of the cancer cells [16]: + (less than 40% growth inhibition of the cancer cells) | growth inhibition of the cancer cells [17]: +++ (at least 75% growth inhibition of the cancer cells) | growth inhibition of the cancer cells [18]: +++ (at least 75% growth inhibition of the cancer cells) | growth inhibition of the cancer cells [19]: + (less than 40% growth inhibition of the cancer cells) | growth inhibition of the cancer cells [20]: +++ (at least 75% growth inhibition of the cancer cells) | growth inhibition of the cancer cells [21]: +++ (at least 75% growth inhibition of the cancer cells) | growth inhibition of the cancer cells [22]: +++ (at least 75% growth inhibition of the cancer cells) | growth inhibition of the cancer cells [23]: +++ (at least 75% growth inhibition of the cancer cells) | growth inhibition of the cancer cells [24]: + (less than 40% growth inhibition of the cancer cells) | growth inhibition of the cancer cells [25]: ++ (40%-75% growth inhibition of the cancer cells) | growth inhibition of the cancer cells [26]: ++ (40%-75% growth inhibition of the cancer cells) | growth inhibition of the cancer cells [27]: ++ (40%-75% growth inhibition of the cancer cells) | growth inhibition of the cancer cells [28]: +++ (at least 75% growth inhibition of the cancer cells) | growth inhibition of the cancer cells [29]: +++ (at least 75% growth inhibition of the cancer cells) | growth inhibition of the cancer cells [30]: +++ (at least 75% growth inhibition of the cancer cells)
